Patent US20250230193A1, “CYCLIC COMPOUND HAVING SELECTIVE KRAS INHIBITORY EFFECT ON HRAS AND NRAS” (CHUGAI SEIYAKU KABUSHIKI KAISHA, priority 2022, published 2025)

Columns and labels:
[1] = target: GDP-bound NRAS wild-type protein (Homo sapiens, UniProt P01111); assay: Binding to NRAS by surface plasmon resonance (SPR), Single Cycle Kinetics; conditions: SPR; KD ratio class
[2] = target: GDP-bound HRAS wild-type protein (Homo sapiens, UniProt P01112); assay: Binding to HRAS by surface plasmon resonance (SPR), Single Cycle Kinetics; conditions: SPR; KD ratio class
[3] = test system: human lung cancer strain NCI-H441; assay: cells; conditions: NCI-H441, 96 h, read-out: NCI-H441 IC50 (nM)

Chain of GDP-bound HRAS wild-type protein (P01112 whole entry): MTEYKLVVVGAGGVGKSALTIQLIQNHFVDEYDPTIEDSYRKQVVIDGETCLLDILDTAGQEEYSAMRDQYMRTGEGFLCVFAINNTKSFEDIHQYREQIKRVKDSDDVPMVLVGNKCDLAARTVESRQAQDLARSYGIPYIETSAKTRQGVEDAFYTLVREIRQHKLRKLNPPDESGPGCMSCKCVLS
Chain of GDP-bound NRAS wild-type protein (P01111 whole entry): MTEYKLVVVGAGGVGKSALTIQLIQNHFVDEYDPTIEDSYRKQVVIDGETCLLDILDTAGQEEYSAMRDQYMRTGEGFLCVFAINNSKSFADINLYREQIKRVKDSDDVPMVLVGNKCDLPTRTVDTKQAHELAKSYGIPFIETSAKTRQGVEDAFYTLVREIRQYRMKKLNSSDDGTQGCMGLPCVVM

Structure (SMILES) | IC50 [3] [nM] | NRAS/KRAS (ratio of KD value for GDP-bound NRAS wild-type protein to KD value for KRAS) [1] | HRAS/KRAS (ratio of KD value for GDP-bound HRAS wild-type protein to KD value for KRAS) [2]
CCO[C@@H]1C[C@H]2C(=O)NC3(CCC3)C(=O)N(C)[C@@H](C(CC)CC)C(=O)N(C)[C@H](C(=O)N(C)C)CC(=O)N(C)[C@@H](CC3CCCC3)C(=O)N[C@@H]([C@@H](C)CC)C(=O)N(C)CC(=O)N(C)[C@H]3C/C=C\CCN(C3=O)[C@@H](CC3CCCCC3)C(=O)N(C)CC(=O)N[C@@H](CCc3cc(F)c(C(F)(F)F)c(F)c3)C(=O)N2C1 [PP1430] | 70.4 | A (a compound having 10 or more and less than 20 is denoted as A) | A (a compound having 10 or more and less than 20 is denoted as A)
CC[C@H](C)[C@@H]1NC(=O)[C@H](CC)N(C)C(=O)C[C@@H](C(=O)N(C)C)N(C)C(=O)[C@H](C2CCCC2)N(C)C(=O)C2(CCC2)NC(=O)[C@@H]2C[C@H](C)CN2C(=O)[C@H](CCc2cc(F)c(C(F)(F)F)c(F)c2)NC(=O)CN(C)C(=O)[C@H](CC2CCCCC2)N2CC/C=C\C[C@@H](C2=O)N(C)C(=O)CN(C)C1=O [PP1471] | 48.2 | A (a compound having 10 or more and less than 20 is denoted as A) | A (a compound having 10 or more and less than 20 is denoted as A)
CCO[C@@H]1C[C@H]2C(=O)NC3(CC(C)(C)C3)C(=O)N(C)[C@@H](C3CCCC3)C(=O)N(C)[C@H](C(=O)N(CC)CC)CC(=O)N(C)[C@@H](CC)C(=O)N[C@@H]([C@@H](C)CC)C(=O)N(C)CC(=O)N(C)[C@H]3C/C=C\CCN(C3=O)[C@@H](Cc3ccc(C(F)(F)F)cc3)C(=O)N(C)CC(=O)N[C@@H](CCc3cc(F)c(C(F)(F)F)c(F)c3)C(=O)N2C1 [PP1580] | 9.7 | A (a compound having 10 or more and less than 20 is denoted as A) | A (a compound having 10 or more and less than 20 is denoted as A)
CCO[C@@H]1C[C@H]2C(=O)NC3(CCC3)C(=O)N(C)[C@@H](C3CCCC3)C(=O)N(C)[C@H](C(=O)N(C)C)CC(=O)N(C)[C@@H](CC3CC3)C(=O)N[C@@H]([C@@H](C)CC)C(=O)N(C)CC(=O)N(C)[C@H]3C/C=C\CCN(C3=O)[C@@H](Cc3ccc(F)cc3)C(=O)N(C)CC(=O)N[C@@H](CCc3ccc4sccc4c3)C(=O)N2C1 [PP1426] | 475 | A (a compound having 10 or more and less than 20 is denoted as A) | B (a compound having 3 or more and less than 10 is denoted as B)
CCO[C@@H]1C[C@H]2C(=O)NC3(CCC3)C(=O)N(C)[C@@H](C(CC)CC)C(=O)N(C)[C@H](C(=O)N3CCOCC3)CC(=O)N(C)[C@@H](CC3CC3)C(=O)N[C@@H]([C@@H](C)CC)C(=O)N(C)CC(=O)N(C)[C@H]3C/C=C\CCN(C3=O)[C@@H](Cc3ccc(F)cc3)C(=O)N(C)CC(=O)N[C@@H](CCc3cc(F)c(C(F)(F)F)c(F)c3)C(=O)N2C1 [PP1527] | 143 | A (a compound having 10 or more and less than 20 is denoted as A) | A (a compound having 10 or more and less than 20 is denoted as A)
CC[C@H](C)[C@@H]1NC(=O)[C@H](CC2CC2)N(C)C(=O)C[C@@H](C(=O)N2CCCC2)N(C)C(=O)[C@H](C2CCCC2)N(C)C(=O)C2(CCCC2)NC(=O)[C@@H]2C[C@@H](C(F)(F)F)CN2C(=O)[C@H](CCc2cc(F)c(C(F)(F)F)c(F)c2)NC(=O)CN(C)C(=O)[C@H](Cc2ccc(C(F)(F)F)cc2)N2CC/C=C\C[C@@H](C2=O)N(C)C(=O)CN(C)C1=O [PP1506] | 73.4 | AA (a compound having 20 or more is denoted as AA) | A (a compound having 10 or more and less than 20 is denoted as A)
CCO[C@@H]1C[C@H]2C(=O)NC3(CCC3)C(=O)N(C)[C@@H](C3CCCC3)C(=O)N(C)[C@H](C(=O)N3CCOCC3)CC(=O)N(C)[C@@H](CC(C)C)C(=O)N[C@@H]([C@@H](C)CC)C(=O)N(C)CC(=O)N(C)[C@H]3C/C=C\CCN(C3=O)[C@@H](Cc3ccc(C)cc3)C(=O)N(C)CC(=O)N[C@@H](CCc3cc(F)c(C(F)(F)F)c(F)c3)C(=O)N2C1 [PP1415] | 9.5 | A (a compound having 10 or more and less than 20 is denoted as A) | A (a compound having 10 or more and less than 20 is denoted as A)
CCO[C@@H]1C[C@H]2C(=O)NC3(CCC3)C(=O)N(C)[C@@H](C3CCCC3)C(=O)N(C)[C@H](C)CC(=O)N(C)[C@@H](CC3CCCC3)C(=O)N[C@@H]([C@@H](C)CC)C(=O)N(C)CC(=O)N(C)[C@H]3C/C=C\CCN(C3=O)[C@@H](Cc3ccc(F)cc3)C(=O)N(C)CC(=O)N[C@@H](CCc3cc(F)c(C(F)(F)F)c(F)c3)C(=O)N2C1 [PP1492] | 129 | B (a compound having 3 or more and less than 10 is denoted as B) | B (a compound having 3 or more and less than 10 is denoted as B)

Further lines, with some results ahead:

IC50 [3] [nM] | Structure (SMILES) | NRAS/KRAS (ratio of KD value for GDP-bound NRAS wild-type protein to KD value for KRAS) [1] | HRAS/KRAS (ratio of KD value for GDP-bound HRAS wild-type protein to KD value for KRAS) [2]
220 | CCO[C@@H]1C[C@H]2C(=O)NC3(CCCC3)C(=O)N(C)[C@@H](C(CC)CC)C(=O)N(C)[C@H](C(=O)N3CCCC3)CC(=O)N(C)[C@@H](C)C(=O)N[C@@H]([C@@H](C)CC)C(=O)N(C)CC(=O)N(C)[C@H]3C/C=C\CCN(C3=O)[C@@H](CC3CCC(F)(F)CC3)C(=O)N(C)CC(=O)N[C@@H](CCc3cc(F)c(C(F)(F)F)c(F)c3)C(=O)N2C1 [PP1437] | A (a compound having 10 or more and less than 20 is denoted as A) | A (a compound having 10 or more and less than 20 is denoted as A)
1.7 | CCO[C@@H]1C[C@H]2C(=O)NC3(CC(C)(C)C3)C(=O)N(C)[C@@H](C3CCCC3)C(=O)N(C)[C@H](C(=O)N(C)C)CC(=O)N(C)[C@@H](CC(C)C)C(=O)N[C@@H]([C@@H](C)CC)C(=O)N(C)CC(=O)N(C)[C@H]3C/C=C\CCN(C3=O)[C@@H](Cc3ccc(C(F)(F)F)cc3)C(=O)N(C)CC(=O)N[C@@H](CCc3ccc(C(F)(F)F)c(OC)c3)C(=O)N2C1 [PP1562] | A (a compound having 10 or more and less than 20 is denoted as A) | A (a compound having 10 or more and less than 20 is denoted as A)
112 | CCO[C@@H]1C[C@H]2C(=O)NC3(CCC3)C(=O)N(C)[C@@H](C(CC)CC)C(=O)N(C)[C@H](C(=O)N3CCCC3)CC(=O)N(C)[C@@H](C)C(=O)N[C@@H]([C@@H](C)CC)C(=O)N(C)CC(=O)N(C)[C@H]3C/C=C\CCN(C3=O)[C@@H](CC3CCCCC3)C(=O)N(C)CC(=O)N[C@@H](CCc3cc(F)c(C(F)(F)F)c(F)c3)C(=O)N2C1 [PP1434] | A (a compound having 10 or more and less than 20 is denoted as A) | A (a compound having 10 or more and less than 20 is denoted as A)
11.5 | CCO[C@@H]1C[C@H]2C(=O)NC3(CCC3)C(=O)N(C)[C@@H](C3CCCC3)C(=O)N(C)[C@H](C(=O)N3CCOCC3)CC(=O)N(C)[C@@H](CC)C(=O)N[C@@H]([C@@H](C)CC)C(=O)N3CC[C@H]3C(=O)N(C)[C@H]3CC[C@@H](C)CN(C3=O)[C@@H](Cc3ccc(C(F)(F)F)cc3)C(=O)N(C)CC(=O)N[C@@H](CCc3ccc(C(F)(F)F)c(Cl)c3)C(=O)N2C1 [PP1375] | B (a compound having 3 or more and less than 10 is denoted as B) | B (a compound having 3 or more and less than 10 is denoted as B)
3.7 | CCO[C@@H]1C[C@H]2C(=O)NC3(CCCC3)C(=O)N(C)[C@@H](C3CCCC3)C(=O)N(C)[C@H](C(=O)N3CCOCC3)CC(=O)N(C)[C@@H](CC)C(=O)N[C@@H]([C@@H](C)CC)C(=O)N(C)CC(=O)N(C)[C@H]3C[C@@H](C)[C@@H](C)CN(C3=O)[C@@H](Cc3ccc(C(F)(F)F)cc3)C(=O)N(C)CC(=O)N[C@@H](CCc3cc(F)c(C(F)(F)F)c(F)c3)C(=O)N2C1 [PP1353] | A (a compound having 10 or more and less than 20 is denoted as A) | B (a compound having 3 or more and less than 10 is denoted as B)
3.7 | CCO[C@@H]1C[C@H]2C(=O)NC3(CCCC3)C(=O)N(C)[C@@H](C3CCCC3)C(=O)N(C)[C@H](C(=O)N(C)C)CC(=O)N(C)[C@@H](CC3CC3)C(=O)N[C@@H]([C@@H](C)CC)C(=O)N(C)CC(=O)N(C)[C@H]3C[C@@H](C)[C@@H](C)CN(C3=O)[C@@H](Cc3ccc(C(F)(F)F)cc3)C(=O)N(C)CC(=O)N[C@@H](CCc3ccc(C(F)(F)F)c(Cl)c3)C(=O)N2C1 [PP1362] | A (a compound having 10 or more and less than 20 is denoted as A) | B (a compound having 3 or more and less than 10 is denoted as B)
49.7 | CCO[C@@H]1C[C@H]2C(=O)NC3(CCC3)C(=O)N(C)[C@@H](C(CC)CC)C(=O)N(C)[C@H](C(=O)N3CCOCC3)CC(=O)N(C)[C@@H](CC(C)C)C(=O)N[C@@H]([C@@H](C)CC)C(=O)N(C)CC(=O)N(C)[C@H]3C/C=C\CCN(C3=O)[C@@H](Cc3ccc(C(F)(F)F)cc3)C(=O)N(C)CC(=O)N[C@@H](CCc3cc(F)c(C(F)(F)F)c(F)c3)C(=O)N2C1 [PP1287] | AA (a compound having 20 or more is denoted as AA) | A (a compound having 10 or more and less than 20 is denoted as A)
